Data from paper PMC8042770, “Odorant Receptors for Detecting Flowering Plant Cues Are Functionally Conserved across Moths and Butterflies” (Molecular Biology and Evolution, 2020).

How the values were obtained:
[1] = target: HarmOR35 (Helicoverpa armigera, UniProt A0A7T3N1A8); assay: Xenopus oocyte two-electrode voltage clamp, HarmOR35 + Orco; type: cell-based; settings: HarmOR35; dose response in oocytes; unit M; read-out: EC50
Protocol: (§1) In order to expand our analysis on the response properties of HarmORs, we conducted dose–response analyses for the 28 functional HarmORs. […] Six HarmORs (OR3, 22, 48, 50, 56, and 66) could not be activated by any ligand at 10^−5 M. For the other 22 HarmORs, dose–response curves were generated and EC50 values of their major ligands were calculated (fig. 2A and supplementary table S2, Supplementary Material online). The HarmOR repertoire was highly efficient in terpene detection, since the lowest EC50 values were obtained for such compounds. Many of these terpenes have been proposed to be defensive chemicals of plants. […] DMNT is also one of the oviposition deterring compounds found in larval frass of some Lepidoptera species such as S. littoralis ([Anderson et al. 1993]).
(§2) Functional characterization of individual ORs was performed by heterologous expression in Xenopus oocytes combined with a two-electrode voltage-clamp system ([Wang et al. 2010]). […] After incubation in nutrient solution at 18 °C for 3–5 days, the response profile of each oocyte to multiple plant odorants was recorded via a two-electrode voltage clamp (OC-725C oocyte clamp, Warner Instruments, Hamden, CT) at a holding potential of −80 mV. Data were acquired by using a Digidata 1440 A and were analyzed by pCLAMP 10.2 software (Axon Instruments Inc., Union City, CA). […]

[2] = target: T1, HarmOR43 (Helicoverpa armigera, UniProt A0A7T3KAF8); assay: Xenopus oocyte two-electrode voltage clamp, HarmOR43 + Orco; type: cell-based; settings: dose response in oocytes, unit M
T1 sequence (A0A7T3KAF8 1-415): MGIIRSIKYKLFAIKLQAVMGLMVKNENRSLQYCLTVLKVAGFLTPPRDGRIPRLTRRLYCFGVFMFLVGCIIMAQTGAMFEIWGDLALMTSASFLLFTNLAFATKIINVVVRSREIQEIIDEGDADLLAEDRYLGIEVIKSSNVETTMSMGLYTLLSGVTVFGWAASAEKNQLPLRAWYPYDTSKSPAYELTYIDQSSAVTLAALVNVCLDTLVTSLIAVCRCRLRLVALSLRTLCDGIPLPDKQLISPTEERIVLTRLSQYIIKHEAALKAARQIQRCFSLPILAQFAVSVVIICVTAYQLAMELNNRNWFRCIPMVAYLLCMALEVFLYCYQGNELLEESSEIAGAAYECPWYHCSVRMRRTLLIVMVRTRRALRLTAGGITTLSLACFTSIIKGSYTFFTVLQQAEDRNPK
Protocol: as §1
(§3) Functional characterization of individual ORs was performed by heterologous expression in Xenopus oocytes combined with a two-electrode voltage-clamp system ([Wang et al. 2010]). Briefly, the full-length gene of each OR and Orco were subcloned into the eukaryotic expression vector pT7TS. cRNAs were generated from linearized expression vectors using the mMESSAGE mMACHINE T7 kit (Ambion, Austin, TX). Then, the cRNA mixture of ORx and Orco (27.6 ng each) was injected (Nanoliter 2010, WPI Inc., Sarasota, FL) into oocytes (stage V–VII). The respective Orcos of different species were used for functional studies of OR42 orthologs except for the four butterfly species (V. tameamea, P. xuthus, D. plexippus, and P. rapae), in which we used the Orco from P. xuthus. After incubation in nutrient solution at 18 °C for 3–5 days, the response profile of each oocyte to multiple plant odorants was recorded via a two-electrode voltage clamp (OC-725C oocyte clamp, Warner Instruments, Hamden, CT) at a holding potential of −80 mV. Data were acquired by using a Digidata 1440 A and were analyzed by pCLAMP 10.2 software (Axon Instruments Inc., Union City, CA). […]

[3] = target: HarmOR29 (Helicoverpa armigera, UniProt A0A7T3KAG0); assay: Xenopus oocyte two-electrode voltage clamp, HarmOR29 + Orco; type: cell-based; settings: dose response in oocytes, unit M
Chain of HarmOR29 (A0A7T3KAG0 1-395): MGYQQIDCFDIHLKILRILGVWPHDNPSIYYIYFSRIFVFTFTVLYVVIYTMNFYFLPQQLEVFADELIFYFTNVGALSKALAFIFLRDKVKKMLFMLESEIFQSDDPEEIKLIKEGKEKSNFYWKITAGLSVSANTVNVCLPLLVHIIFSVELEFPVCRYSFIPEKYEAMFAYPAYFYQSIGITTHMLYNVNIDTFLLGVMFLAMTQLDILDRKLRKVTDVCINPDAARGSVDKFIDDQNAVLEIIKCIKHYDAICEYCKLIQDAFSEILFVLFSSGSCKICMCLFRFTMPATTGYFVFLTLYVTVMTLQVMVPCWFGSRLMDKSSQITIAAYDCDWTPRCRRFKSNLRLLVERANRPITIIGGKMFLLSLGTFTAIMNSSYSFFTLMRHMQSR
Protocol: as §1, §2

[4] = target: T2, HarmOR19 (Helicoverpa armigera, UniProt A0A7T3N0J7); assay: Xenopus oocyte two-electrode voltage clamp, HarmOR19 + Orco; type: cell-based; settings: dose response in oocytes, unit M
T2 sequence (A0A7T3N0J7 1-402): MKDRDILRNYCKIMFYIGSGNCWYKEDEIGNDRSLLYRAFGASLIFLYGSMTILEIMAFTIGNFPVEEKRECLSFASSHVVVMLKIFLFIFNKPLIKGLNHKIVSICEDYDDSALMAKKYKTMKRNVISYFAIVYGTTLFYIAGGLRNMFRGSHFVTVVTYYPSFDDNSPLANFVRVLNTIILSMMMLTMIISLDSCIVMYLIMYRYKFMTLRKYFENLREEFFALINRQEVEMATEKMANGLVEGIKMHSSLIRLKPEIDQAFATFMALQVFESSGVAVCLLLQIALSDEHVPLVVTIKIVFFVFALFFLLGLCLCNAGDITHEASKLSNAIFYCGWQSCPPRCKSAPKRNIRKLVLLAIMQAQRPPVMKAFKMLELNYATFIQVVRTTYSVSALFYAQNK
Protocol: as §1, §3

[5] = target: HarmOR67 (Helicoverpa armigera, UniProt A0A7T3KAH1); assay: Xenopus oocyte two-electrode voltage clamp, HarmOR67 + Orco; type: cell-based; settings: dose response in oocytes, unit M
Chain of HarmOR67 (A0A7T3KAH1 entry or part of it): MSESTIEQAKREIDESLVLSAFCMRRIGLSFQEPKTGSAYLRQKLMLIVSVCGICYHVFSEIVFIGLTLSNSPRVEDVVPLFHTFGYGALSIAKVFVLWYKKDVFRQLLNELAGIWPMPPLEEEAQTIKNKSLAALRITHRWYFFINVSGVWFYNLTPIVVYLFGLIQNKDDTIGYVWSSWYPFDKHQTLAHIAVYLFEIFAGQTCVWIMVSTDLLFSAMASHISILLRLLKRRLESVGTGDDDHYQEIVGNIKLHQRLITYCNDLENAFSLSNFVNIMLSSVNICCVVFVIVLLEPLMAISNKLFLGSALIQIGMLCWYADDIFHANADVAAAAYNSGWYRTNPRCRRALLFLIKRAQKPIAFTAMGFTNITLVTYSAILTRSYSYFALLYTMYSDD
Protocol: as §1, §3

[6] = test system: H. armigera moth antennae; assay: Electroantennography (EAG), wild-type vs HarmOR42 knock-out moths; type: in vivo, Helicoverpa armigera; settings: single odorants, 1 μg
Text: We next conducted a loss-of-function study by generating a HarmOR42-lacking H. armigera strain by CRISPR/Cas9 targeting the first coding exon. Homozygous mutants were obtained with a large segment deletion of 203 bp and a 6-bp nonhomologous insertion in the genome (fig. 6B), introducing a premature stop codon in the coding sequence. […] The most likely hypothesis is that HarmOR42 is not the major receptor for sensing this compound in H. armigera. As a control, we tested the response of male moths to the sex pheromone component Z11-16: Ald that is not a ligand of HarmOR42. As expected, we observed no difference between the EAG responses of mutant and wild-type moths to this compound.
The antennae of 2- to 3-day-old virgin male and female moths were cut at the base of the flagellum. After removing the tip, one antenna was inserted between two glass electrodes filled with 0.1 M KCl solution. In each test, a 10-μl solution of each odorant was added onto a piece of filter paper (0.5 cm × 0.5 cm) and then inserted into a Pasteur pipette. About 100 ng/μl stock solutions of individual odorants and different doses of the mixture IAC were prepared with paraffin oil. A continuous airflow of 30 ml/s was produced by a stimulus controller (CS-55, Syntech, Kirchzarten, Germany). Odor stimulation was controlled by a puff of purified air (0.2 s at 10 ml/s airflow) from the CS-55. EAG signals were amplified with a 10× AC/DC headstage preamplifier (Syntech) and further acquired with an Intelligent Data Acquisition Controller (IDAC-4-USB, Syntech) ([Cao et al. 2016]). The signals were recorded, monitored, and analyzed using Syntech EAG-software (Syntech, Germany). The EAG response values for each compound were calculated by subtracting the value of the same antennae corresponding to a solvent blank of paraffin oil.

[7] = target: HarmOR42 (Helicoverpa armigera, UniProt A0A7T3KAF6); assay: Xenopus oocyte two-electrode voltage clamp, HarmOR42 + Orco; type: cell-based; settings: 67 odorants at 10^−4 M
Chain of HarmOR42 (A0A7T3KAF6 entry or part of it): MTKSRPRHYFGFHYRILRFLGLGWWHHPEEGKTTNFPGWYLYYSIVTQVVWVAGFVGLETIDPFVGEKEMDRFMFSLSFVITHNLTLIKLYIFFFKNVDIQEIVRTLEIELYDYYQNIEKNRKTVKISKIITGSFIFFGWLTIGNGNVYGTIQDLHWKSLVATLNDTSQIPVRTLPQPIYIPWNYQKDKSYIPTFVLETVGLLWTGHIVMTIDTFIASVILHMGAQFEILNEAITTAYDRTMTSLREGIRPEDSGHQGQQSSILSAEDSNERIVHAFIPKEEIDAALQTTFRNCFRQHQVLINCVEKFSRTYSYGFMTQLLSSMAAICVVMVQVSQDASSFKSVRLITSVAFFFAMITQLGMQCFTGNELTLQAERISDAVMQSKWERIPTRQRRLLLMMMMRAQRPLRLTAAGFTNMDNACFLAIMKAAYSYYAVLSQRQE
Text: In preliminary screening, we used a high dosage (10^−4 M) of odorants. […] Most functional ORs responded robustly to multiple odorants. The strongest response (up to ∼6,000 nanoampere, nA) we detected was that of HarmOR42 toward the aromatic compound PAA. Further, the response profiles of the 28 HarmORs appeared to be highly differentiated, with no apparent overlap in their tuning spectra (with the exception of HarmOR12 and 36) according to functional cluster analysis (fig. 1A).
as §1
(§4) Functional characterization of individual ORs was performed by heterologous expression in Xenopus oocytes combined with a two-electrode voltage-clamp system ([Wang et al. 2010]). Briefly, the full-length gene of each OR and Orco were subcloned into the eukaryotic expression vector pT7TS. cRNAs were generated from linearized expression vectors using the mMESSAGE mMACHINE T7 kit (Ambion, Austin, TX). Then, the cRNA mixture of ORx and Orco (27.6 ng each) was injected (Nanoliter 2010, WPI Inc., Sarasota, FL) into oocytes (stage V–VII). The respective Orcos of different species were used for functional studies of OR42 orthologs except for the four butterfly species (V. tameamea, P. xuthus, D. plexippus, and P. rapae), in which we used the Orco from P. xuthus. After incubation in nutrient solution at 18 °C for 3–5 days, the response profile of each oocyte to multiple plant odorants was recorded via a two-electrode voltage clamp (OC-725C oocyte clamp, Warner Instruments, Hamden, CT) at a holding potential of −80 mV. Data were acquired by using a Digidata 1440 A and were analyzed by pCLAMP 10.2 software (Axon Instruments Inc., Union City, CA).
(§5) Stock solutions of each odorant were prepared at 1 M using DMSO as a solvent, and each odorant was diluted in 1× Ringer’s solution to the indicated concentrations for electrophysiological recording. For functional screening of each HarmOR, a panel of 67 odorants belonging to three types of chemical classes: terpenes, aromatics, and aliphatics (short-chain fatty acid) were used (supplementary table S1, Supplementary Material online). For functional studies of OR42 orthologs from different species, six odorants including PAA, benzaldehyde, (E)-2-hexen-1-al, cinnamaldehyde, 2-phenylethanol, and heptanal were used.

[8] = target: T3, HarmOR27 (Helicoverpa armigera, UniProt A0A7T3KAG1); assay: Xenopus oocyte two-electrode voltage clamp, HarmOR27 + Orco; type: cell-based
T3 sequence (A0A7T3KAG1 1-426): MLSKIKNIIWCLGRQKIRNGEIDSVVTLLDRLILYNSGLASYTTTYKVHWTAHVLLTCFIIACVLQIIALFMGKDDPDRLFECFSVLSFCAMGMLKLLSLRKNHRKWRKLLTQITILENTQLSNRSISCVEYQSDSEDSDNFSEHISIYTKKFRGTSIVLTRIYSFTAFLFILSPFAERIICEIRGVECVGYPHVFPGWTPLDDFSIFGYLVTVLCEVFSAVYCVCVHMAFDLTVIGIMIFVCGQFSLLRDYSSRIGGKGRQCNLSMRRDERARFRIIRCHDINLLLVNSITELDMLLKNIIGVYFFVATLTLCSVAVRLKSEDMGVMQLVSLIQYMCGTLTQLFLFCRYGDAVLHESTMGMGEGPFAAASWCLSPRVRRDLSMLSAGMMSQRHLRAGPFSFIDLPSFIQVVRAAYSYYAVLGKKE
Protocol: as §1, §4, §5

[9] = target: HarmOR59 (Helicoverpa armigera, UniProt A0A7T3KAU6); assay: Xenopus oocyte two-electrode voltage clamp, HarmOR59 + Orco; type: cell-based
Chain of HarmOR59 (A0A7T3KAU6 entry or part of it): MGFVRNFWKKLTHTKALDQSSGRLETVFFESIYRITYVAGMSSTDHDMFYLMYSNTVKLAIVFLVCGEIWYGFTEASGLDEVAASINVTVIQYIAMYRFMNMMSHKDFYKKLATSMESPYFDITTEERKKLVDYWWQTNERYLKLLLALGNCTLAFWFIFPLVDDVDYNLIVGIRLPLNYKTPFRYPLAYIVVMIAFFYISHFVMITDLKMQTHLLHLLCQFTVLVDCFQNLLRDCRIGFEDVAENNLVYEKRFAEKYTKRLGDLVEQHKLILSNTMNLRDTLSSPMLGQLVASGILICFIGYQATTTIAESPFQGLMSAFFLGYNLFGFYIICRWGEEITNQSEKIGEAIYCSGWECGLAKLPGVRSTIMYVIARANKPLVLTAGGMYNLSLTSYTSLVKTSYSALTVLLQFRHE
Protocol: as §1, §4, §5

[10] = target: HarmOR10 (Helicoverpa armigera, UniProt A0A0G2RLT6); assay: Xenopus oocyte two-electrode voltage clamp, HarmOR10 + Orco; type: cell-based
Chain of HarmOR10 (A0A0G2RLT6 1-390): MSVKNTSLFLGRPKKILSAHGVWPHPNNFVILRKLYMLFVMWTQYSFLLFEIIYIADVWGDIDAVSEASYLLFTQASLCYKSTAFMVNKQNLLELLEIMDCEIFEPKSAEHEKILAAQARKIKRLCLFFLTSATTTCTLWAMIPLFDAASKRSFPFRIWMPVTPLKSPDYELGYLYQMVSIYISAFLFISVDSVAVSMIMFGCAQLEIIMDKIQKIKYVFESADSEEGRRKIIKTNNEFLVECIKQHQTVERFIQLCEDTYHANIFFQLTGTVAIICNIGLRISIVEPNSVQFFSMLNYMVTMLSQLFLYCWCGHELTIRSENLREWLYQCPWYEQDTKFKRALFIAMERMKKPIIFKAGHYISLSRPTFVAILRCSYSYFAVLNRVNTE
Protocol: as §1, §2

Chain of HarmOR35 (A0A7T3N1A8 entry or part of it): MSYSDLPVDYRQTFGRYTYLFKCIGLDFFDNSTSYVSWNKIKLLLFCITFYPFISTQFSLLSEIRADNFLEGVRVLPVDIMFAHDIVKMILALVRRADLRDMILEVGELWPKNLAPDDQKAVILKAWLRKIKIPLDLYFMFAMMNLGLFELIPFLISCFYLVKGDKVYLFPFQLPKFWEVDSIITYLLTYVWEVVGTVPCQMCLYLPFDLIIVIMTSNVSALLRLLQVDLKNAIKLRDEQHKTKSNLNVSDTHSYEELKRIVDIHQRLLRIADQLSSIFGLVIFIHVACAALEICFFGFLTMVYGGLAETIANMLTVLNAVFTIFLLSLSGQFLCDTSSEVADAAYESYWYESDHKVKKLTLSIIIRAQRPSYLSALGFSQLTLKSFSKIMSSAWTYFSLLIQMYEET

CC1(C)[C@H]2CC=C(C=O)[C@@H]1C2 [(1R)-(-)-Myrtenal]
EC50 [1]: 255 µM

COC(=O)c1ccc(O)cc1 [Methyl 4-hydroxybenzoate]
EC50 [2]: 19.6 µM
EC50 [3]: 178 µM

CCc1ccc(C(C)=O)cc1 [4'-Ethylacetophenone]
EC50 [4]: 16.7 µM

CCCCCCC=O [Heptanal]
EC50 [5]: 302 µM
EAG response of HarmOR42 knock-out mutants compared with wild-type moths [6]: significantly decreased
ligand tuning of HarmOR42 [7]: minor ligands

COC(=O)c1ccccc1O [Methyl salicylate]
EC50 [2]: 15.8 µM
EC50 [8]: 15.6 µM

O=Cc1ccccc1 [Benzaldehyde]
EC50 [9]: 12 µM
EC50 [10]: 124 µM
ligand tuning of HarmOR10 ([10]; 67 odorants at 10^−4 M): specific ligand
